In brackets after ≈: the same amount, converted by molar mass. Activity calls are given as the source filed them. The rule behind the calls is not given here.
Legend:
Suid alphaherpesvirus 1 [1] = experiment: Antiviral activity against Suid alphaherpesvirus 1 infected in pig PK-15 cells assessed as inhibition of viral growth; assay type: functional; conditions: Suid alphaherpesvirus 1, in Sus scrofa
Suid alphaherpesvirus 1 [2] = experiment: Antiviral activity against Suid alphaherpesvirus 1 infected in pig PK-15 cells assessed as inhibition of replication pretreated with compound for 2 hrs followed by viral infection and measured after 48 hrs; assay type: functional, organism-based; conditions: Suid alphaherpesvirus 1, PK-15
Suid alphaherpesvirus 1 [3] = experiment: Antiviral activity against Suid alphaherpesvirus 1 infected in pig PK-15 cells assessed as inhibition of replication at >200 nM pretreated with compound for 2 hrs followed by viral infection and measured after 48 hrs; assay type: functional; conditions: time 50 hrs
[4] = Cytotoxicity against pig PK-15 cells assessed as cell viability incubated for 72 hrs by CCK-8 assay; assay type: toxicity, cell-based, Sus scrofa
Suid alphaherpesvirus 1 [5] = experiment: Antiviral activity against Suid alphaherpesvirus 1 infected in pig PK-15 cells assessed as inhibition of viral replication pretreated with compound for 2 hrs followed by viral infection and measured after 24 hrs by ELISA analysis; assay type: functional, organism-based; conditions: Suid alphaherpesvirus 1, PK-15
Suid alphaherpesvirus 1 [6] = experiment: Antiviral activity against Suid alphaherpesvirus 1; assay type: functional, organism-based
Suid alphaherpesvirus 1 [7] = experiment: Antiviral activity against Suid alphaherpesvirus 1 infected in pig PK-15 cells; assay type: functional, organism-based; conditions: Suid alphaherpesvirus 1, PK-15
[8] = Cytotoxicity against pig PK-15 cells; assay type: toxicity, cell-based, Sus scrofa
[9] = Tmax in male Kunming mouse at 30 mg/kg, ip measured up to 8 hrs by LC-MS/MS analysis; assay type: ADME, organism-based; conditions: in vivo
[10] = AUC (0 to infinity) in male Kunming mouse at 30 mg/kg, ip measured up to 8 hrs by LC-MS/MS analysis; assay type: ADME, organism-based; conditions: in vivo
[11] = MRT (0 to t) in male Kunming mouse at 30 mg/kg, ip measured up to 8 hrs by LC-MS/MS analysis; assay type: ADME, organism-based; conditions: in vivo
[12] = Cmax in male Kunming mouse at 30 mg/kg, ip measured up to 8 hrs by LC-MS/MS analysis; assay type: ADME, organism-based; conditions: in vivo
[13] = Half life in male Kunming mouse at 30 mg/kg, ip measured upto 8 hrs by LC-MS/MS analysis; assay type: ADME, organism-based; conditions: in vivo
Suid alphaherpesvirus 1 [14] = experiment: Antiviral activity against Suid alphaherpesvirus 1 infected in Kunming mouse assessed as survival at 30 mg/kg, ip measured at 7.3 days; assay type: functional, organism-based; conditions: time 7.3 day
[15] = MRT (0 to infinity) in male Kunming mouse at 30 mg/kg, ip measured up to 8 hrs by LC-MS/MS analysis; assay type: ADME, organism-based; conditions: in vivo
[16] = AUC (0 to t) in male Kunming mouse at 30 mg/kg, ip measured up to 8 hrs by LC-MS/MS analysis; assay type: ADME, organism-based; conditions: in vivo
Suid alphaherpesvirus 1 [17] = experiment: Antiviral activity against Suid alphaherpesvirus 1 infected in Kunming mouse assessed as inhibition of viral copy numbers in brain at 30 mg/kg, ip measured on day 6 by qPCR analysis; assay type: functional; conditions: Suid alphaherpesvirus 1, 144 h, time 6 day
Suid alphaherpesvirus 1 [18] = experiment: Antiviral activity against Suid alphaherpesvirus 1 infected in Kunming mouse assessed as reduction in viral copy numbers in blood at 30 mg/kg, ip measured on day 6 by qPCR analysis; assay type: functional, organism-based; conditions: time 6.0 day
Suid alphaherpesvirus 1 [19] = experiment: Antiviral activity against Suid alphaherpesvirus 1 infected in Kunming mouse assessed as reduction in viral copy numbers in brain at 30 mg/kg, ip measured on day 6 by qPCR analysis; assay type: functional; conditions: time 6 day
Suid alphaherpesvirus 1 [20] = experiment: Antiviral activity against Suid alphaherpesvirus 1 infected in pig PK-15 cells infected for 1 hr followed by compound addition and measured after 48 hrs; assay type: functional, organism-based; conditions: Suid alphaherpesvirus 1, PK-15
Suid alphaherpesvirus 1 [21] = experiment: Antiviral activity against Suid alphaherpesvirus 1 infected in pig PK-15 cells assessed as inhibition of viral replication; assay type: functional, organism-based; conditions: Suid alphaherpesvirus 1, PK-15
Suid alphaherpesvirus 1 [22] = experiment: Antiviral activity against Suid alphaherpesvirus 1 infected in pig PK-15 cells assessed as inhibition of replication at 1 uM pretreated with compound for 2 hrs followed by viral infection and measured after 48 hrs (reference value: 99.6%); assay type: functional; conditions: Suid alphaherpesvirus 1, PK-15, in Sus scrofa, time 50 hrs

**Q.** Which MIC80 (Suid alphaherpesvirus 1 [1]) does the source give for `O=C(NCc1cc(Cl)ccc1F)c1cn(Cc2ccccc2)c2cc(N3CCNCC3)c(F)cc2c1=O` here?
**A.** 40 nM (≈ 20.9 ng/mL)

**Q.** And the EC50 (Suid alphaherpesvirus 1 [2])?
**A.** 2.11 nM

**Q.** With `O=C(NCc1cc(Cl)ccc1F)c1cn(C2CC2)c2cc(N3CCNCC3)c(F)cc2c1=O` as the compound, how does the MIC80 (Suid alphaherpesvirus 1 [1]) read?
**A.** 1.6 nM (≈ 0.757 ng/mL)

**Q.** What about the “inhibition (INH)” value (Suid alphaherpesvirus 1 [3]) of the same compound?
**A.** <=99.5%

**Q.** And the EC50 (Suid alphaherpesvirus 1 [2])?
**A.** 0.21 nM

**Q.** What about the CC50 at 72 h [4] of the same compound?
**A.** > 100000 nM

**Q.** For `C[C@]12CC[C@H](O)C[C@H]1CC[C@@H]1[C@@H]2CC[C@]2(C)[C@@H](c3ccc(=O)oc3)CC[C@]12O` [BUFALIN], which EC50 (Suid alphaherpesvirus 1 [5]) is on record?
**A.** 33 nM

**Q.** Which MIC80 (Suid alphaherpesvirus 1 [1]) does the source give for `O=C(NCc1cc(Cl)ccc1Cl)c1cn(C2CC2)c2cc(N3CCNCC3)c(F)cc2c1=O` here?
**A.** 8 nM (≈ 3.92 ng/mL)

**Q.** And the EC50 (Suid alphaherpesvirus 1 [2])?
**A.** 0.71 nM

**Q.** Which EC50 (Suid alphaherpesvirus 1 [6]) does the source give for `CCCCCC/C=C\CCCCCCCc1cccc(O)c1C(=O)O` [GINGKOLIC ACID] here?
**A.** 3400 nM

**Q.** For `Oc1cc(O)cc(/C=C/c2ccc(O)c(O)c2)c1` [PICEATANNOL], which EC50 (Suid alphaherpesvirus 1 [7]) is on record?
**A.** 126 nM

**Q.** Which results are given for `O=C(NCc1cccc(Cl)c1)c1cn(C2CC2)c2cc(N3CCNCC3)c(F)cc2c1=O`?
**A.** MIC80 (Suid alphaherpesvirus 1 [1]): 40 nM (≈ 18.2 ng/mL); EC50 (Suid alphaherpesvirus 1 [2]): 10.2 nM

**Q.** For `Cn1cc(C(=O)NCc2ccc(Cl)cc2)c(=O)c2cc(CN3CCOCC3)ccc21`, which MIC80 (Suid alphaherpesvirus 1 [1]) is on record?
**A.** 0.32 nM (≈ 0.136 ng/mL)

**Q.** What about the CC50 [8] of the same compound?
**A.** 45200 nM

**Q.** And the EC50 (Suid alphaherpesvirus 1 [2])?
**A.** 1.45 nM

**Q.** What about the EC50 (Suid alphaherpesvirus 1 [6]) of the same compound?
**A.** 0.1 nM

**Q.** For `O=C(NCc1cc(Cl)ccc1F)c1cn(-c2ccccc2)c2cc(N3CCNCC3)c(F)cc2c1=O`, which Tmax [9] is on record?
**A.** 1.5 h

**Q.** And the AUC(0-inf) [10]?
**A.** 1330 ng·h/mL

**Q.** And the MRT last at 8 h [11]?
**A.** 3.15 h

**Q.** What about the MIC80 (Suid alphaherpesvirus 1 [1]) of the same compound?
**A.** 1.6 nM (≈ 0.814 ng/mL)

**Q.** And the “inhibition (INH)” value (Suid alphaherpesvirus 1 [3])?
**A.** <=99.5%

**Q.** What about the Cmax [12] of the same compound?
**A.** 342 ng/mL

**Q.** And the EC50 (Suid alphaherpesvirus 1 [2])?
**A.** 0.29 nM

**Q.** What about the half-life [13] of the same compound?
**A.** 3.24 h

**Q.** What about the Activity (Suid alphaherpesvirus 1 [14]) of the same compound?
**A.** Active

**Q.** What about the MRT inf [15] of the same compound?
**A.** 5.34 h

**Q.** And the AUC(0-t) at 8 h [16]?
**A.** 1020 ng·h/mL

**Q.** What about the inhibition in vivo at 30 mg/kg (Suid alphaherpesvirus 1 [17]) of the same compound?
**A.** > 99%

**Q.** And the Activity (Suid alphaherpesvirus 1 [18])?
**A.** Active

**Q.** And the Activity (Suid alphaherpesvirus 1 [19])?
**A.** 280 g⁻¹

**Q.** For `Cc1cc(O)c2c(c1)C(=O)c1cc(O)cc(O)c1C2=O` [EMODIN], which EC50 (Suid alphaherpesvirus 1 [20]) is on record?
**A.** 470 nM

**Q.** Which MIC80 (Suid alphaherpesvirus 1 [1]) does the source give for `O=C(NCc1ccc(Cl)c(Cl)c1)c1cn(C2CC2)c2cc(N3CCNCC3)c(F)cc2c1=O` here?
**A.** 8 nM (≈ 3.92 ng/mL)

**Q.** What about the EC50 (Suid alphaherpesvirus 1 [2]) of the same compound?
**A.** 0.25 nM

**Q.** For `O=C(NCc1cc(Cl)ccn1)c1cn(C2CC2)c2cc(N3CCNCC3)c(F)cc2c1=O`, which MIC80 (Suid alphaherpesvirus 1 [1]) is on record?
**A.** 8 nM (≈ 3.65 ng/mL)

**Q.** And the EC50 (Suid alphaherpesvirus 1 [2])?
**A.** 0.39 nM

**Q.** With `CN(C)CCNC(=O)c1cn(C)c2ccc(CN3CCOCC3)cc2c1=O` as the compound, how does the CC50 [8] read?
**A.** 344000 nM

**Q.** And the EC50 (Suid alphaherpesvirus 1 [21])?
**A.** 0.014 nM

**Q.** With `O=C(NCc1ccc(Cl)cc1)c1cn(C2CC2)c2cc(N3CCNCC3)c(F)cc2c1=O` as the compound, how does the MIC80 (Suid alphaherpesvirus 1 [1]) read?
**A.** 200 nM (≈ 91 ng/mL)

**Q.** What about the EC50 (Suid alphaherpesvirus 1 [2]) of the same compound?
**A.** 2.21 nM

**Q.** And the CC50 at 72 h [4]?
**A.** 9300 nM

**Q.** Which inhibition at 1 µM (Suid alphaherpesvirus 1 [22]) does the source give for `O=C(O)c1cn(C2CC2)c2cc(N3CCNCC3)c(F)cc2c1=O` [CIPROFLOXACIN] here?
**A.** 65%

**Q.** Which results are given for `CCn1cc(C(=O)NCc2cccc(Cl)c2)c(=O)c2cc(F)c(N3CCNCC3)cc21`?
**A.** MIC80 (Suid alphaherpesvirus 1 [1]): 8 nM (≈ 3.54 ng/mL); EC50 (Suid alphaherpesvirus 1 [2]): 0.85 nM

**Q.** Which EC50 (Suid alphaherpesvirus 1 [6]) does the source give for `Oc1ccc(O)cc1` [HYDROQUINONE] here?
**A.** 8300 nM

**Q.** Which inhibition at 1 µM (Suid alphaherpesvirus 1 [22]) does the source give for `CCn1cc(C(=O)O)c(=O)c2cc(F)c(N3CCNCC3)cc21` [NORFLOXACIN] here?
**A.** 66%
